What was measured:
[1] = test system: KK-Ay mouse (obese diabetic mice); settings: 100 mg/kg body weight, not normal or lean diabetic mice; cited from earlier work
[2] = test system: patients with dyslipidemia; experiment: Clinical study: DHASCO capsules co-administered with statin medication for 12 months; format: in vivo, human; settings: patients treated with DHA
Text: Thus, the present inventors have discovered that DHA has a long term effect (as shown by reduction in glycosylated hemoglobin levels reflecting longer term glucose control integrated over 2-3 months). Finally, the inventors have discovered that therapy using DHA-containing oils can be effective at DHA levels that are not excessive (e.g., at levels which minimize side effects associated with fatty acid ingestion).
In a clinical study, DHASCO capsules (which contained DHA as a triglyceride oil extracted from Crypthecodinium cohnii cells, obtained from Martek Biosciences Corp., Columbia, Md.) were co-administered with statin medication to patients with dyslipidemia. Hyperlipidemic patients already being treated with a stable dose of a statin medication but still failing to meet NCEP guidelines for LDL-cholesterol or triglycerides were treated with either 200 or 1000 mg of DHA daily for 12 months. HbA1c levels (glycosylated hemoglobin, a marker of glycemic control) were measured in plasma at baseline and after 8 or 12 months of treatment.
Reduction in CRP of this extent is clinically significant, and may be correlated with a benefit of reduced risk of Type II diabetes onset, independent of other Type II risk factors.

[3] = test system: subjects with HDL levels below the sex-specific median; experiment: Randomized, double-blind, controlled trial of DHASCO-S capsules, six weeks; metabolic disturbance score, serum lipids, LDL particles; format: in vivo, human; settings: 1.52 g DHA per day
Text: DHASCO-S capsules (which contained DHA as a triglyceride oil extracted from Schizochytrium sp. cells, obtained from Martek Biosciences Corp., Columbia, Md.) were used in the following study. Subjects (n=57) were enrolled in a randomized, double-blind, controlled trial to assess the response to 1.52 g of DHA per day for six weeks. Subjects were aged 21-80 and had HDL levels below the sex-specific median (a criterion for metabolic syndrome). The average triglyceride (TG) level at the beginning of the study was 169-179 mg/dl (metabolic syndrome criterion >150 mg/dL). The average distribution of LDL particles in this population was 44-50% small dense particles. Small dense particles are another lipid hallmark of metabolic syndrome. […] The average waist circumference for men and women combined was about 100+/−2.5 cm (criterion for metabolic syndrome is about 88 cm for women and about 102 cm for men). The average blood pressure in the study was normotensive at 120/77 mmHg.
The metabolic disturbance score was calculated to assess the relationship between independent variables and the criterion related to metabolic syndrome. The score is a composite of values for selected risk factors including: serum triglycerides, serum HDL cholesterol, systolic blood pressure, waist circumference, and fasting serum glucose. The following formula was utilized to calculate the metabolic score, where Z=the z score, i.e., the number of standard deviations above or below the mean value for each variable (Micciolo 1991; Maki 1994): Metabolic Disturbance Score=Z for triglycerides+Z for systolic blood pressure+Z for waist circumference+Z for glucose−Z for HDL cholesterol. Since triglyceride values were not normally distributed, a natural log-transformation was performed to normalize the distribution prior to calculating the Z score.
Additionally, pre-specified subgroup analyses were performed for serum lipid and metabolic disturbance score values. The triglyceride subgroups were split at the median baseline value (170 mg/dL). A Body Mass Index (BMI) of 30 kg/m^2 was chosen as the cut-point for BMI subgroups (BMI<30 kg/m2 and BMI≧30 kg/m^2) because persons with a BMI≧30 kg/M^2 are considered obese (Expert Panel 1998).

patients = settings: cited from earlier work

In the case of `CC/C=C\C/C=C\C/C=C\C/C=C\C/C=C\C/C=C\CCC(=O)OCC` [DHA ethyl ester], the blood glucose [1] is given as “reduced”, the insulin sensitivity [1] is given as “enhanced” and the plasma triglycerides [1] is given as “reduced”.

In the case of `CC/C=C\C/C=C\C/C=C\C/C=C\C/C=C\C/C=C\CCC(=O)O` [DHA, docosahexaenoic acid], the “overall reduction in CRP levels” value [2] was 15%, the “increase in large LDL particles from baseline to end of treatment” value ([3]; P=0.028 vs control) was 32.4% and the “change in small LDL particles from baseline” value ([3]; P=0.191 vs control) was −23.2%. The “change in TG from baseline” value ([3]; p=0.001 vs control) was −25.4%, the “increase in HDL” value ([3]; p=0.102 vs control) was “+9.0%” and the “change from baseline in metabolic disturbance score, subgroup” value ([3]; subjects with baseline triglycerides >=170 mg/dL, p=0.001 vs control) was −1.16.

In the case of `CN(C)C(=N)N=C(N)N` [Metformin], the “patients with gastrointestinal reactions” value (patients; fraction of patients) is given as “about a third” and the “lactic acidosis cases that are fatal” value (patients; rare reaction) is given as “about 50%”.

Source: patent US20040092590A1, “Glycemic control for prediabetes and/or diabetes Type II using docosahexaenoic acid” (priority 2002, published 2004)
